Consider 2 molecules from ChEMBL document CHEMBL1122373, “Multisubstrate adducts as potential inhibitors of S-adenosylmethionine dependent methylases: inhibition of indole N-methyltransferase by (5'-deoxyadenosyl)[3-(3-indolyl)prop-1-yl]methylsulfonium and (5'-deoxyadenosyl)[4-(3-indolyl)but-1-yl]methylsulfonium salts” (J Med Chem, 1983).

The assay deals with T1, Catechol O-methyltransferase (Sus scrofa, UniProt Q99028).
T1 sequence (Q99028 whole entry): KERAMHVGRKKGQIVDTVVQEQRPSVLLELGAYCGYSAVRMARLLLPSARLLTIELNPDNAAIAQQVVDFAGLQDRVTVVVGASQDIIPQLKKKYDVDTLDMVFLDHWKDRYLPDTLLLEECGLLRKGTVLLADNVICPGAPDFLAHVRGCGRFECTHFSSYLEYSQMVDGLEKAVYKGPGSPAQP
Put plainly: Inhibitory activity against catechol O-methyltransferase. Particulars: read-out: I50.

Consider `C[S+](CCCCc1c[nH]c2ccccc12)C[C@H]1O[C@@H](n2cnc3c(N)ncnc32)[C@H](O)[C@@H]1O` (some centres not stated), for which the IC50 was determined as 10 mM.

In the case of `C[S+](CCCc1c[nH]c2ccccc12)C[C@H]1O[C@@H](n2cnc3c(N)ncnc32)[C@H](O)[C@@H]1O` (some centres not stated), the IC50 was more than 10 mM.
